Experimental data: PubChem BioAssay AID248 (DTP/NCI, 2004)
“And” between values parts separate entries of the source, which are not always exact repeats. Identical values can stand only once. Inconclusive results and toxic doses are left out. Rule as the data show it: active = T/C of 150% or more; inactive = T/C below 125%.

Test system: L1210 leukemia ip in BDF1 mice, survival T/C
Experiment: NCI In Vivo Anticancer Drug Screen. Data for tumor model L1210 Leukemia (intraperitoneal) in B6D2F1 (BDF1) mice
Conditions: endpoint: mean survival time, higher = longer survival
Outline: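 In this screen, tumor-bearing mice given compound are compared to those given vehicle, and their survival values are reported as a treated-to-control quotient.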

[1] = dose: 100.0 mg/kg/injection, schedule: Q01DX001 (ip), vehicle: Klucel (hydroxypropylcellulose) (HPC)
[2] = dose: 100.0 mg/kg/injection, schedule: Q01DX009 (ip), vehicle: Klucel (hydroxypropylcellulose) (HPC)
[3] = dose: 200.0 mg/kg/injection, schedule: Q01DX001 (ip), vehicle: Klucel (hydroxypropylcellulose) (HPC)
[4] = dose: 200.0 mg/kg/injection, schedule: Q01DX009 (ip), vehicle: Klucel (hydroxypropylcellulose) (HPC)
[5] = dose: 400.0 mg/kg/injection, schedule: Q01DX009 (ip), vehicle: Klucel (hydroxypropylcellulose) (HPC)
[6] = dose: 100.0 mg/kg/injection, schedule: Q04DX003 (ip), vehicle: Klucel (hydroxypropylcellulose) (HPC)
[7] = dose: 200.0 mg/kg/injection, schedule: Q04DX003 (ip), vehicle: Klucel (hydroxypropylcellulose) (HPC)
[8] = dose: 400.0 mg/kg/injection, schedule: Q04DX003 (ip), vehicle: Klucel (hydroxypropylcellulose) (HPC)
[9] = dose: 100.0 mg/kg/injection, schedule: Q01DX001 (ip), vehicle: carboxymethylcellulose (CMC)
[10] = dose: 200.0 mg/kg/injection, schedule: Q01DX001 (ip), vehicle: carboxymethylcellulose (CMC)
[11] = dose: 400.0 mg/kg/injection, schedule: Q01DX001 (ip), vehicle: carboxymethylcellulose (CMC)
[12] = dose: 100.0 mg/kg/injection, schedule: Q01DX001 (ip), vehicle: saline
[13] = dose: 200.0 mg/kg/injection, schedule: Q01DX001 (ip), vehicle: saline

Measured: T/C

CC(C)CCCC(C)C1CCC2C3CC=C4CC(OCCO)CCC4(C)C3CCC12C (stereo unspecified)
inactive: dose: 100.0 mg/kg/injection, schedule: Q01DX009 (ip), vehicle: other 87 % of control | dose: 200.0 mg/kg/injection, schedule: Q01DX009 (ip), vehicle: other 105 % of control

COc1cc(C(C)=O)ccc1OS(C)(=O)=O
inactive: dose: 20.0 mg/kg/injection, schedule: Q01DX009 (ip), vehicle: Klucel (hydroxypropylcellulose) (HPC) 100 % of control | dose: 20.0 mg/kg/injection, schedule: Q04DX003 (ip), vehicle: Klucel (hydroxypropylcellulose) (HPC) 106 % of control | dose: 40.0 mg/kg/injection, schedule: Q01DX009 (ip), vehicle: Klucel (hydroxypropylcellulose) (HPC) 98 % of control | dose: 40.0 mg/kg/injection, schedule: Q04DX003 (ip), vehicle: Klucel (hydroxypropylcellulose) (HPC) 93 % of control | dose: 80.0 mg/kg/injection, schedule: Q01DX009 (ip), vehicle: Klucel (hydroxypropylcellulose) (HPC) 96 % of control | dose: 80.0 mg/kg/injection, schedule: Q04DX003 (ip), vehicle: Klucel (hydroxypropylcellulose) (HPC) 98 % of control

C=CCOC(=O)Nc1ccccc1
inactive: [1] 92 % of control and 90 % of control | [2] 106 % of control | [3] 93 % of control and 94 % of control | [4] 95 % of control | dose: 300.0 mg/kg/injection, schedule: Q01DX001 (ip), vehicle: Klucel (hydroxypropylcellulose) (HPC) 97 % of control | [5] 101 % of control

CCCOC(=O)COc1ccc(Cl)cc1C
inactive: [6] 96 % of control | [7] 96 % of control | [8] 91 % of control

O=C(c1ccccc1)C1CCC(C(=O)c2ccccc2)C1=O (stereo unspecified)
inactive: [9] 98 % of control | [10] 98 % of control | [11] 98 % of control

C=C1C(=O)O[C@@H]2CC(C)=C3CC[C@@](C)(O)[C@@H]3C[C@H]12
inactive: dose: 75.0 mg/kg/injection, schedule: Q04DX003 (ip), vehicle: Klucel (hydroxypropylcellulose) (HPC) 106 % of control | dose: 150.0 mg/kg/injection, schedule: Q04DX003 (ip), vehicle: Klucel (hydroxypropylcellulose) (HPC) 102 % of control | dose: 300.0 mg/kg/injection, schedule: Q04DX003 (ip), vehicle: Klucel (hydroxypropylcellulose) (HPC) 98 % of control | dose: 600.0 mg/kg/injection, schedule: Q04DX003 (ip), vehicle: Klucel (hydroxypropylcellulose) (HPC) 94 % of control

CN(C)Cc1ccc2ccccc2c1C(O)(c1ccccc1)c1ccccc1
inactive: [9] 96 % of control | [10] 98 % of control | [11] 96 % of control

OCc1ccccc1O
inactive: dose: 50.0 mg/kg/injection, schedule: Q01DX009 (ip), vehicle: Klucel (hydroxypropylcellulose) (HPC) 105 % of control | [1] 100 % of control | [2] 102 % of control | [3] 100 % of control | [4] 102 % of control | dose: 400.0 mg/kg/injection, schedule: Q01DX001 (ip), vehicle: Klucel (hydroxypropylcellulose) (HPC) 106 % of control

CC(=O)N(CCN(C)C)Cc1ccccc1
inactive: [12] 98 % of control | [13] 98 % of control

COc1ccccc1NC(=O)OCC#CCOC(=O)Nc1ccccc1OC
inactive: [6] 91 % of control | [7] 95 % of control | [8] 91 % of control

Nc1nc(-c2ccccc2)c2ccccc2n1
inactive: [9] 101 % of control | [10] 93 % of control | [11] 104 % of control

O=C(Nc1cc([N+](=O)[O-])ccc1F)Oc1ccc(OCc2ccccc2)cc1
inactive: dose: 100.0 mg/kg/injection, schedule: Q04DX002 (ip), vehicle: Klucel (hydroxypropylcellulose) (HPC) 103 % of control | dose: 200.0 mg/kg/injection, schedule: Q04DX002 (ip), vehicle: Klucel (hydroxypropylcellulose) (HPC) 89 % of control | dose: 400.0 mg/kg/injection, schedule: Q04DX002 (ip), vehicle: Klucel (hydroxypropylcellulose) (HPC) 106 % of control

CS(=O)(=O)CCN(N=O)C(=N)N[N+](=O)[O-]
active: dose: 40.0 mg/kg/injection, schedule: Q01DX Z (ip), vehicle: carboxymethylcellulose (CMC) 155 % of control | dose: 60.0 mg/kg/injection, schedule: Q01DX Z (ip), vehicle: carboxymethylcellulose (CMC) 150 % of control | dose: 60.0 mg/kg/injection, schedule: Q01DX Z (ip), vehicle: methylcellulose (MC) 168 % of control
inactive: dose: 5.1 mg/kg/injection, schedule: Q01DX Z (ip), vehicle: carboxymethylcellulose (CMC) 116 % of control | dose: 7.7 mg/kg/injection, schedule: Q01DX Z (ip), vehicle: carboxymethylcellulose (CMC) 116 % of control | dose: 8.8 mg/kg/injection, schedule: Q01DX Z (ip), vehicle: methylcellulose (MC) 121 % of control | dose: 11.7 mg/kg/injection, schedule: Q01DX Z (ip), vehicle: carboxymethylcellulose (CMC) 116 % of control | dose: 12.0 mg/kg/injection, schedule: Q01DX Z (sc), vehicle: carboxymethylcellulose (CMC) 101 % of control | dose: 17.7 mg/kg/injection, schedule: Q01DX Z (ip), vehicle: carboxymethylcellulose (CMC) 123 % of control | dose: 20.0 mg/kg/injection, schedule: Q01DX Z (ip), vehicle: methylcellulose (MC) 117 % of control | dose: 24.0 mg/kg/injection, schedule: Q01DX Z (sc), vehicle: carboxymethylcellulose (CMC) 117 % of control | dose: 45.0 mg/kg/injection, schedule: Q01DX Z (oral), vehicle: carboxymethylcellulose (CMC) 106 % of control | dose: 48.0 mg/kg/injection, schedule: Q01DX Z (sc), vehicle: carboxymethylcellulose (CMC) 101 % of control | dose: 90.0 mg/kg/injection, schedule: Q01DX Z (ip), vehicle: methylcellulose (MC) 122 % of control | dose: 90.0 mg/kg/injection, schedule: Q01DX Z (oral), vehicle: carboxymethylcellulose (CMC) 105 % of control | dose: 96.0 mg/kg/injection, schedule: Q01DX Z (sc), vehicle: carboxymethylcellulose (CMC) 112 % of control | dose: 135.0 mg/kg/injection, schedule: Q01DX Z (ip), vehicle: methylcellulose (MC) 119 % of control | dose: 180.0 mg/kg/injection, schedule: Q01DX Z (oral), vehicle: carboxymethylcellulose (CMC) 118 % of control | dose: 360.0 mg/kg/injection, schedule: Q01DX Z (oral), vehicle: carboxymethylcellulose (CMC) 114 % of control

COc1ccc(OC)c(NC(=S)NC(=O)c2cccc([N+](=O)[O-])c2)c1
inactive: [2] 106 % of control | [6] 120 % of control | [4] 106 % of control | [7] 100 % of control | [5] 94 % of control | [8] 97 % of control

C/C=C(\C)C#N
inactive: dose: 22.0 mg/kg/injection, schedule: Q01DX Z (ip), vehicle: saline 102 % of control | dose: 33.0 mg/kg/injection, schedule: Q01DX Z (ip), vehicle: saline 93 % of control

CCCC(Cc1cccs1)C(=O)O (stereo unspecified)
inactive: dose: 100.0 mg/kg/injection, schedule: Q01DX001 (ip), vehicle: other 101 % of control | dose: 200.0 mg/kg/injection, schedule: Q01DX001 (ip), vehicle: other 97 % of control | dose: 400.0 mg/kg/injection, schedule: Q01DX001 (ip), vehicle: other 97 % of control

NC1CC(N)CC(N)C1 (stereo unspecified)
inactive: dose: 25.0 mg/kg/injection, schedule: Q04DX003 (ip), vehicle: saline 92 % of control | dose: 50.0 mg/kg/injection, schedule: Q04DX003 (ip), vehicle: saline 99 % of control | dose: 100.0 mg/kg/injection, schedule: Q04DX003 (ip), vehicle: saline 86 % of control and 91 % of control

Clc1cc[c]([Sn]([O][Sn]([c]2ccc(Cl)cc2)([c]2ccc(Cl)cc2)[c]2ccc(Cl)cc2)([c]2ccc(Cl)cc2)[c]2ccc(Cl)cc2)cc1
inactive: dose: 25.0 mg/kg/injection, schedule: Q04DX002 (ip), vehicle: Klucel (hydroxypropylcellulose) (HPC) 107 % of control | dose: 50.0 mg/kg/injection, schedule: Q04DX002 (ip), vehicle: Klucel (hydroxypropylcellulose) (HPC) 91 % of control

CCN(CC)CCC(CC=C(C)C)(C(N)=O)c1cccc2ccccc12 (stereo unspecified)
inactive: dose: 5.0 mg/kg/injection, schedule: Q04DX003 (ip), vehicle: saline with Tween-80 98 % of control | dose: 10.0 mg/kg/injection, schedule: Q04DX003 (ip), vehicle: saline with Tween-80 100 % of control | dose: 20.0 mg/kg/injection, schedule: Q04DX003 (ip), vehicle: saline with Tween-80 109 % of control

O=C(Nc1cccc2cccnc12)C(F)(F)F
inactive: dose: 50.0 mg/kg/injection, schedule: Q01DX001 (ip), vehicle: saline 91 % of control | [12] 104 % of control | [13] 91 % of control | dose: 400.0 mg/kg/injection, schedule: Q01DX001 (ip), vehicle: saline 93 % of control
